Results as given in patent US5880158A, “Propionamide anticonvulsants” (Research Corporation Tech., Inc., priority 1997, dated 1999).

Tests used:
[1] = test system: male albino Cartworth Farms No. 1 mice; test: maximal electroshock seizure (MES) test in mice; type: in vivo; details: intraperitoneal; for ED50: Mus musculus, ip, at time of peak effect, numbers in parentheses 95% confidence intervals
Procedure: (§1) Activity was established using the electrical (maximal electroshock or MES) test. In the MES test, a drop of electrolyte solution with anesthetic (0.5% butacaine hemisulfate in 0.9% sodium chloride) was used in the eyes of the animals prior to positioning the corneal electrodes and delivery of current. A 60 cycle alternating current was administered for 0.2 sec. at 50 mA. Protection endpoints were defined as the abolition of the hind limb tonic extensor component of the induced seizure. In mice, the effects of compounds on forced spontaneous motor activity were determined using the rotorod test. […] Normally under these conditions, a mouse can maintain its balance almost indefinitely. In the mouse identification screening study all compounds were given at three dose levels (30, 100, 300 mg/kg) and two time periods (0.5, 4h). Typically, in the MES seizures test one animal was used at 30 mg/kg and 300 mg/kg, and three animals at 100 mg/kg. In the rotorod toxicity test four animals were used at 30 mg/kg, and 300 mg/kg, and eight animals at 100 mg/kg. If activity was found at 30 mg/kg, then lower dosages were used to find the ED50 values.

[2] = test system: male albino Cartworth Farms No. 1 mice; test: rotorod test, neurologic toxicity in mice; type: in vivo; details: intraperitoneal, at time of peak effect, numbers in parentheses 95% confidence intervals
Procedure: as §1

[3] = test system: male albino Cartworth Farms No. 1 mice; test: protective index (TD50/ED50), rotorod versus MES in mice; details: for protective index (in words): compared with phenytoin, phenobarbital and valproate
Text: Compounds were screened under the auspices of the National Institutes of Health for anticonvulsant activity in male albino Cartworth Farms No. 1 mice (ip route). Activity was established using the electrical (maximal electroshock or MES) test. In the MES test, a drop of electrolyte solution with anesthetic (0.5% butacaine hemisulfate in 0.9% sodium chloride) was used in the eyes of the animals prior to positioning the corneal electrodes and delivery of current. A 60 cycle alternating current was administered for 0.2 sec. at 50 mA. Protection endpoints were defined as the abolition of the hind limb tonic extensor component of the induced seizure. In mice, the effects of compounds on forced spontaneous motor activity were determined using the rotorod test. […] Normally under these conditions, a mouse can maintain its balance almost indefinitely. In the mouse identification screening study all compounds were given at three dose levels (30, 100, 300 mg/kg) and two time periods (0.5, 4h). Typically, in the MES seizures test one animal was used at 30 mg/kg and 300 mg/kg, and three animals at 100 mg/kg. In the rotorod toxicity test four animals were used at 30 mg/kg, and 300 mg/kg, and eight animals at 100 mg/kg.
The quantitative determination of the median effective (ED50) and toxic doses (TD50) were conducted at previously calculated times of peak effect. Groups of at least eight animals were tested using different doses of test compound until at least two points were determined between 100 and 0% protection and minimal motor impairment. The dose of candidate substance required to produce the defined endpoint in 50% of the animals in each test and the 95% confidence interval were calculated.

[4] = rotorod test, neurologic toxicity in mice; type: in vivo; details: mouse, ip, intraperitoneal, at time of peak effect, numbers in parentheses 95% confidence intervals, read-out: Tox TD50
Procedure: as §1

| SMILES | ED50 [1] [mg/kg] | Tox TD50 [2] [mg/kg] | anticonvulsant activity / efficacy (in words) ([1]; MES) | TD50 [4] [mg/kg] | other results |
| --- | --- | --- | --- | --- | --- |
| O=C1NC(=O)C(c2ccccc2)(c2ccccc2)N1 [phenytoin] | 6.5 | 43 |  |  |  |
| COCC(OC)C(=O)NCc1ccccc1 (stereo not shown) [R, S OCH3 CH2 OCH3, N-BENZYL 2,3-DIMETHOXY PROPIONAMIDE] | 30 |  | much greater efficacy | 280 | ED50, times more effective than that of the dihydroxy compound ([1]; MES, diether versus dihydroxy compound): greater than 3 times; protective index (in words) ([3]; listed as N-Benzyl 2,3-dimethyoxypropionamide): unexpectedly high protective index; protective index (in words) ([3]; listed as diether): significantly greater than the P.I. values of phenytoin, phenobarbital and valproate; P.I. (protective index, TD50/ED50) ([3]; intraperitoneal): 9.3; P.I., times more effective than that of the dihydroxy compound ([3]; intraperitoneal, diether versus dihydroxy compound): greater than 3 times |
| COC[C@@H](OC)C(=O)NCc1ccccc1 [R OCH3 CH2 OCH3, (R)-N-Benzyl-2,3-dimethoxypropionamide] |  |  |  | 300 |  |
| O=C(NCc1ccccc1)C(O)CO (racemic) [R, S OH CH2 OH, N-Benzyl 2,3-Dihydroxypropionamide] |  |  | very low anticonvulsant activity | > 300 |  |
| CCC1(c2ccccc2)C(=O)NC(=O)NC1=O [phenobarbital] | 22 |  |  |  |  |
| CCCC(CCC)C(=O)O [valproate] | 290 | 480 |  |  |  |
